Test results: patent US7659397B2, “Pyrithione complex compound, process for producing the same and use thereof” (priority 2003, dated 2010)
Where two headings read alike, the source gives them in different places.

Tests used:
[1] = for Solubility in seawater, Molecular weight conversion / Solubility in seawater, Dissolved zinc-copper: pH = 8.2
Method: Formulation of artificial seawater (g/L)
0.1 g of the sample was added in 500 mL of artificial seawater, which was then stirred at 20° C. and 30° C. for 4 hours and filtered, and the filtrate was subjected to atomic absorption analysis.

[2] = test system: Aspergillus niger ATCC 6275; assay: Antibacterial test (MIC), agar medium; details: Potato dextrose agar medium, 30° C., 7 days
[3] = test system: Staphylococcus aureus NBRC 12732; details: for Minimum growth inhibitive concentration of bacteria, Staphylococcus aureus: Soybean casein digest agar medium, 30° C., 5 days
Method: (§1) Preparation of a sample: the extract was dissolved in dimethylsulfoxide, to which an aqueous 0.1 W % Tween 80 was added to make a sample solution.
Soybean casein digest agar medium, 30° C., 5 days

[4] = test system: Escherichia coli NBRC 3972; details: for Minimum growth inhibitive concentration of bacteria, Escherichia coli: NB agar medium with lactose, 30° C., 3 days
Method: as §1
NB agar medium to which lactose is added, 30° C., 3 days

[5] = Weathering of polyethylene resin molded article (color difference, yellow index); type: physicochemical; details: for ΔE* / ΔYI: Sample after hung in the sun versus before; for degree of coloring: after hung in the sun, ranking
Method: Then, the resin materials were respectively applied to a sheet having a size of 200 mm×200 mm×1.1 mm by press molding in the condition of 140° C. and 200 kgf/cm^2. Two test pieces of 30 mm×110 mm were cut from each of the four sheets and hung in the sun from 8 a.m. to 5 p.m. for five fine weather days selected from among the term between Sep. 15 and […].

[6] = 2% by weight in purified water, well-lighted room, one week
Excerpt: (§2) The pyrithione complex compound represented by the formula (I) is used as an antidandruff agent to be formulated in hair-care products such as shampoos and hair rinses like conventional zinc pyrithione. […] Also, the zinc pyrithione/zinc oxide complex compound and zinc pyrithione were respectively added to purified water in an amount of 2% by weight and each suspension was allowed to stand in a well-lighted room to observe the degree of coloration of the suspension.

[7] = test system: Malassezia furfur NBRC 0656; details: YM agar medium with olive oil, 30° C., 6 days
Method: as §1
YM agar medium to which olive oil is added, 30° C., 6 days

[8] = test system: Pseudomonas aeruginosa IAM 1514; assay: Antibacterial test (MIC), alone and combined with isothiazolone preparation; type: cell-based; details: Table 3, Example 16
Method: (§3) Preparation of a sample: the white powder is added in a fixed concentration.
(§4) Culture condition: 28° C., 24 hours, shake culture

[9] = Stability in DMSO (coloring of filtrate); type: physicochemical
Method: 2 g of each of these four compounds was added in 10 g of DMSO, allowed to stand at ambient temperature in a laboratory and filtered, to examine coloring of the filtrate. Then, the filter residue was again added to 10 g of DMSO to carry out the same operation.

oculus membrane mucosa = details: aqueous 2.0 W % suspension instilled in the eye
Excerpt: as §2

[10] = test system: Bacillus subtilis IFO 3215; assay: Antibacterial test (MIC), shake culture; type: cell-based; details: 24 hours
Method: as §3, §4

[11] = test system: Escherichia coli IFO 3972; assay: Antibacterial test (MIC), shake culture; type: cell-based; details: 24 hours
Method: as §3, §4

[12] = Sample after hung in the sun, five days
[13] = Sample before hung in the sun, 0.15 parts in LDPE

Compound | Solubility in seawater, Molecular weight conversion ([1]; 20° C.) | Solubility in seawater, Molecular weight conversion ([1]; 30° C.) | Minimum growth inhibitive concentration of bacteria, Aspergillus niger [2] | Solubility in seawater, Dissolved zinc-copper ([1]; 20° C.) | Minimum growth inhibitive concentration of bacteria, Staphylococcus aureus [3] | Minimum growth inhibitive concentration of bacteria, Escherichia coli [4] | ΔE* [5] | ΔYI [5] | L* [5, 12] | YI [5, 12] | a* [5, 12] | b* [5, 12] | L* [5, 13] | YI [5, 13] | a* [5, 13] | b* [5, 13] | degree of coloring [5] | degree of coloration of the suspension [6] | Minimum growth inhibitive concentration of bacteria, Malassezia furfur [7] | further results
On1ccccc1=S.On1ccccc1=S.[Cu] [Copper pyrithione] | 0.1 µg/mL | 0.2 µg/mL | 20 mg/L | – | – | – | – | – | – | – | – | – | – | – | – | – | – | – | – | –
[Cu+2].[Cu+2].[Cu+2].[O-][n+]1ccccc1[S-].[O-][n+]1ccccc1[S-].[O-][n+]1ccccc1[S-].[O-][n+]1ccccc1[S-].[O-][n+]1ccccc1[S-].[O-][n+]1ccccc1[S-].[O]=[Cu] [Example 9 Chloroform extract, copper pyrithione/copper (II) oxide complex compound] | 0.6 µg/mL | 0.6 µg/mL | 5 mg/L | 0.14 (Cu) mg/L | – | – | – | – | – | – | – | – | – | – | – | – | – | – | – | Solubility in seawater, Dissolved zinc-copper ([1]; 30° C.): 0.15 (Cu) mg/L; solubility in seawater ([1]; as stated in the description): about 0.6 ppm
[O-2].[O-][n+]1ccccc1S.[O-][n+]1ccccc1S.[O-][n+]1ccccc1S.[O-][n+]1ccccc1S.[O-][n+]1ccccc1S.[O-][n+]1ccccc1S.[Zn+2].[Zn+2].[Zn+2].[Zn+2] [Example 3 Chloroform extract, zinc pyrithione-zinc oxide complex compound] | 3.2 µg/mL | 4.3 µg/mL | – | 0.82 (Zn) mg/L | 1.25 mg/L | 10 mg/L | 11.52 | 19.93 | 81.92 | 21.52 | −3.05 | 11.52 | 84.78 | 1.58 | −0.28 | 0.71 | smaller | slightly yellowed | 5 mg/L | antibacterial ability to Staphylococcus aureus ([3]; compared with zinc pyrithione): higher; antibacterial ability to Escherichia coli ([4]; compared with zinc pyrithione): higher
Zinc pyrithione | 6.1 µg/mL | 7.4 µg/mL | – | – | 2.5 mg/L | 20 mg/L | 20.18 | 34.00 | 82.16 | 34.70 | −5.00 | 19.68 | 86.87 | 0.71 | −0.79 | 0.51 | the largest | colored in yellow | 5 mg/L | Minimum growth inhibitive concentration of bacteria, Pseudomonas aeruginosa [8]: >1000 mg/L; coloring of the first filtrate ([9]; 2 g in 10 g of DMSO, ambient temperature): brown appearance; coloring of the second filtrate ([9]; filter residue again added to 10 g of DMSO): brown appearance; primary irritation (criterion by the Draize method) (oculus membrane mucosa): slightly irritant; Minimum growth inhibitive concentration of bacteria, Bacillus subtilis ([10]; Table 1, Example 14, 28° C.): 2.5 mg/L; Minimum growth inhibitive concentration of bacteria, Bacillus subtilis ([10]; Table 2, Example 15, 28° C.): 1 mg/L; Minimum growth inhibitive concentration of bacteria, Escherichia coli ([11]; Table 1, Example 14, 28° C.): 5 mg/L; Minimum growth inhibitive concentration of bacteria, Escherichia coli ([11]; Table 2, Example 15, 28° C.): 2.5 mg/L
